Results taken from patent US6821980B1, “Substituted 5-benzyl-2,4-diaminopyrimidines” (Basilea Pharmaceutica AG, priority 1999, dated 2004).
In brackets after ≈: the same amount, converted by molar mass. Where two headings read alike, the source gives them in different places.

What was measured:
[1] = test system: Streptococcus pneumoniae 1/1; test: MIC against Streptococcus pneumoniae 1/1; format: cell-based; details: Streptococcus pneumoniae 1/1, trimethoprim- and penicillin-resistant, serotype 6, clinical isolate; for MIC: read-out: MIC Sp1/1
[2] = test system: Staphylococcus aureus 101; test: MIC against Staphylococcus aureus 101; format: cell-based; details: Staphylococcus aureus 101, MRSA- and trimethoprim-resistant, clinical isolate; for MIC: read-out: MIC Sa101
[3] = biological target: T1, purified DHFR of strain Sp1/1 of Streptococcus pneumoniae (Streptococcus pneumoniae serotype 4, UniProt Q54801); format: biochemical; details: IC50 against purified DHFR of strain Sp1/1
T1 sequence (Q54801 1-168 I100L): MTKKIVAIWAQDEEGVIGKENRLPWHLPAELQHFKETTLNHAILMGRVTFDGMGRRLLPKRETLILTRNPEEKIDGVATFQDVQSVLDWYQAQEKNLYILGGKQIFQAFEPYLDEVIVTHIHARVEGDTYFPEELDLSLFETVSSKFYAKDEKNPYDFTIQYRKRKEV

[4] = biological target: purified DHFR of strain 157/4696 of Staphylococcus aureus (Staphylococcus aureus, UniProt P13955); test: biochemical
Chain of purified DHFR of strain 157/4696 of Staphylococcus aureus (P13955 whole entry): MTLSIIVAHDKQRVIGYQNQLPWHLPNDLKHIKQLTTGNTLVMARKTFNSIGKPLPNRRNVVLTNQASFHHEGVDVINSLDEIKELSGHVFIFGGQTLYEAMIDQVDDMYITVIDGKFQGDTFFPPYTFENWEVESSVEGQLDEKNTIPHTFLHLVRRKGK

SMILES	MIC ([1]; Table 2) [µg/mL]	MIC ([2]; Table 2) [µg/mL]	IC50 ([3]; Table 2) [nM]	IC50 [4] [nM]	MIC ([1]; Table 1) [µg/mL]	MIC ([2]; Table 1) [µg/mL]	IC50 ([3]; Table 1) [nM]	MIC Sp1/1 ([1]; Table 2) [µg/mL]	MIC Sa101 ([2]; Table 2) [µg/mL]	IC50 ([4]; Table 2, IC50 against purified DHFR of strain 157/4696 (highly trimethoprim-resistant; clinical isolate), read-out: DHFR Sa1) [nM]
CCOc1cc(Cc2cnc(N)nc2N)cc(OS(=O)(=O)CC(C)C)c1-c1ccc(OC)c(N)c1 [Example 36-d, 2-Methyl-prooane-1-sulphonic acid 3′-amino-4-(2,4-diamino-pyrimidin-5-ylmethyl)-6-ethoxy-4′-methoxy-biphenyl-2-yl ester]	0.5 (≈ 0.997 µM)	2 (≈ 3.99 µM)	0.68	66						
CCOc1cc(Cc2cnc(N)nc2N)cc(OS(=O)(=O)C2CCC2)c1-c1ccc(CN2CCOCC2)c(N)c1 [Example 40-d, Cyclobutane-sulphonic acid 3′-amino-4-(2,4-diamino-pyrimidin-5-ylmethyl)-6-ethoxy-4′-morpholinomethyl-biphenyl-2-yl ester]	2 (≈ 3.52 µM)	2 (≈ 3.52 µM)	17	130						
CCOc1cc(Cc2cnc(N)nc2N)cc(OS(=O)(=O)CC(C)C)c1-c1ccc(N)c(C)c1 [Example 36-a, 2-Methyl-propane-1-sulphonic acid 4′-amino-4-(2,4-diamino-pyrimidin-5-ylmethyl)-6-ethoxy-3′-methyl-biphenyl-2-yl ester]	0.25 (≈ 0.515 µM)	2 (≈ 4.12 µM)	3.3	32						
CCOc1cc(Cc2cnc(N)nc2N)cc(OS(=O)(=O)N(C)C)c1-c1ccc(C)c(N)c1 [Example 31a, Dimethylsulphamic acid 3′-amino-4-(2,4-diamino-pyrimidin-5-ylmethyl)-6-ethoxy-4′-methyl-biphenyl-2-yl ester]				110	1 (≈ 2.12 µM)	1 (≈ 2.12 µM)	1.9			
CCOc1cc(Cc2cnc(N)nc2N)cc(OS(=O)(=O)C(C)CC)c1-c1ccc(O)cc1 (centres unmarked) [Example 15-g, Butane-2-sulphonic acid 4-(2,4-diamino-Dyrimidin-5-ylmethyl)-6-ethoxy-4′-hydroxy-biphenyl-2-yl ester]	0.5 (≈ 1.06 µM)	2 (≈ 4.23 µM)	25	39						
CCOc1cc(Cc2cnc(N)nc2N)cc(OC2CCC(C#N)C2)c1-c1ccc(O)cc1 (centres unmarked) [Example 08-x, 3-[4-(2,4-Diamino-pyximidin-5-ylmethyl)-6-ethoxy-4′-hydroxy-biphenyl-2-yloxy]-cyclopentanecarbonitrile]	4 (≈ 8.98 µM)	8 (≈ 18 µM)	25	1400						
CCOc1cc(Cc2cnc(N)nc2N)cc(OS(=O)(=O)C2CC2)c1-c1ccc(C)c(N)c1 [Example 34-f, Cyclopropanesulphonic acid 3′-amino-4-(2,4-diamino-pyrimidin-5-ylmethyl)-6-ethoxy-4′-methyl-biphenyl-2-yl ester]	1 (≈ 2.13 µM)	2 (≈ 4.26 µM)	9.5	97						
CCOc1cc(Cc2cnc(N)nc2N)cc(OCC)c1-c1ccc2c(c1)NCCO2 [Example 02-h, 5-[4-(3,4-Dihydro-2H-benzo[1.4]oxazin-6-yl)-3,5-diethoxy-benzyl]-pyrimidine-2,4-diamine]	4 (≈ 9.49 µM)	8 (≈ 19 µM)	38	1200						
CCOc1cc(Cc2cnc(N)nc2N)cc(OCC)c1-c1ccc(CN2CCOCC2)cc1 [Example 02-w, 5-(2,6-Diethoxy-4′-morpholine-4-ylmethyl-biphenyl-4-ylmethyl)-pyrimidine-2,4-diamine]	4 (≈ 8.63 µM)	8 (≈ 17.3 µM)	280	2200						
CCCOc1cc(Cc2cnc(N)nc2N)cc(OCC)c1-c1cccc(O)c1 [Example 53-, 4′-(2,4-Diamino-pyrimidin-5-ylmethyl)-6′-ethoxy-2′-n-propoxy-biphenyl-3-ol]	4 (≈ 10.1 µM)	8 (≈ 20.3 µM)	28	1800						
CCOc1cc(Cc2cnc(N)nc2N)cc(OCCc2scnc2C)c1-c1ccc(O)cc1 [Example 08-q, 4′-(2,4-Diamino-pyrimidin-5-ylmethyl)-6′-ethoxy-2′-[2-(4-methyl-thiazol-5-yl)-ethoxy]-biphenyl-4-ol]	8 (≈ 16.8 µM)	8 (≈ 16.8 µM)	28	1400						
CCOc1cc(Cc2cnc(N)nc2N)cc(OS(=O)(=O)N(C)CC)c1-c1cc(N)cc(F)c1 [Example 29-c, N-Ethyl-N-methyl-sulphamic acid 3′-amino-4-(2,4-diamino-pyrimidin-5-ylmethyl)-6-ethoxy-5′-fluoro-biphenyl-2-yl ester]	2 (≈ 4.08 µM)	2 (≈ 4.08 µM)	5.2	170						
CCOc1cc(Cc2cnc(N)nc2N)cc(OCC)c1-c1ccc(NC)cc1 [Example 04-ab, 5-(2,6-Diethoxy-4′-methylamino-biphenyl-4-ylmethyl)-pyrimidine-2,4-diamine]	4 (≈ 10.2 µM)	8 (≈ 20.3 µM)	120	1400						
CCOc1cc(Cc2cnc(N)nc2N)cc(OS(=O)(=O)N(CC)CC)c1-c1cccc(N)c1 [Example 19-h, Diethyl-sulphamic acid 3′-amino-4-(2,4-diamino-pyrimidin-5-ylmethyl)-6-ethoxy-biphenyl-2-yl ester]	1 (≈ 2.06 µM)	2 (≈ 4.11 µM)	0.55	160						
CCCOc1cc(Cc2cnc(N)nc2N)cc(OCC)c1-c1ccc(OC)cc1 [Example 09-e, 5-(6-Ethoxy-4′-methoxy-2-propoxy-biphenyl-4-ylmethyl)-pyrimidine-2,4-diamine]	4 (≈ 9.79 µM)	4 (≈ 9.79 µM)	45	1000						
CCOc1cc(Cc2cnc(N)nc2N)cc(OCC)c1-c1ccc(CN2CCOCC2)c(N)c1 [Example 04-j, 5-(3′-Amino-2,6-diethoxy-4′-morpholino-4-ylmethy-biphenyl)-pyrimidine-2,4-diamine]			48					4 (≈ 8.36 µM)	8 (≈ 16.7 µM)	850
CCOc1cc(Cc2cnc(N)nc2N)cc(OCC2(CC#N)CC2)c1-c1cccc(N)c1 [Example 07-b, {1-[3′-Amino-4-(2,4-diamino-pyrimidin-5-ylmethyl)-6-ethoxy-biphenyl-2-yloxymethyl]-cydopropyl}-acetonitrile]	2 (≈ 4.5 µM)	8 (≈ 18 µM)	36	950						
CCOc1cc(Cc2cnc(N)nc2N)cc(OS(=O)(=O)CC)c1-c1ccc(OC)cc1 [Example 16-b, Ethanesulphonic acid 4-(2,4-diamino-pyrimidin-5-ylmethyl)-6-ethoxy-4′-methoxy-biphenyl-2-yl ester]	2 (≈ 4.36 µM)	2 (≈ 4.36 µM)	39	100						
CCOc1cc(Cc2cnc(N)nc2N)cc(OS(=O)(=O)C(C)C)c1-c1ccc2c(c1)OCO2 [Example 17-c, Propane-2-sulphonic acid 2-benzo[1.3]dioxol-5-yl-5-(2,4-diamino-pyrimidin-5-ylmethyl)-3-ethoxy-phenyl ester]	2 (≈ 4.11 µM)	2 (≈ 4.11 µM)	33	180						
CCOc1cc(Cc2cnc(N)nc2N)cc(OC2CCC(CC#N)C2)c1-c1ccc(O)cc1 (centres unmarked) [Example 08-w, {3-[4-(2,4-Diamino-pyhmidin-5-ylmethyl)-6-ethoxy-4′-hydroxy-biphenyl-2-yloxy]-cyclopentyl}-acetonitrile]	4 (≈ 8.7 µM)	8 (≈ 17.4 µM)	21	920						
CCOc1cc(Cc2cnc(N)nc2N)cc(OCCC2CCOCC2)c1-c1ccc(O)cc1 [Example 08-e, 4′-(2,4-Diamino-pyrimidin-5-ylmethyl)-6′-ethoxy-2′-[2-(tetrahydrogyran-4-yl)-ethoxy]-biphenyl-4-ol]	1 (≈ 2.15 µM)	8 (≈ 17.2 µM)	5.6	950						
CCOc1cc(Cc2cnc(N)nc2N)cc(OC2CCCC2)c1-c1ccc2c(c1)OCO2 [Example 10-d, 5-(4-Benzo[1,3]dioxol-5-yl-3-cyclopentyloxy-5-ethoxy-benzyl)-pyrimidine-2,4-diamine]	8 (≈ 17.8 µM)	4 (≈ 8.92 µM)	42	1700						
CCOc1cc(Cc2cnc(N)nc2N)cc(OCC)c1-c1cccc(NS(C)(=O)=O)c1 [Example 44-, N-[4′-(2,4-Diamino-pyrimidin-5-ylmethyl)-2′,6′-diethoxy-biphenyl-3-yl]-methanesulphonamide]	2 (≈ 4.37 µM)	8 (≈ 17.5 µM)	18	680						
CCOc1cc(Cc2cnc(N)nc2N)cc(OS(=O)(=O)N(C)CC)c1-c1cccc(N)c1 [Example 19-f, N-Ethyl-N-methyl-sulphamic acid 3′-amino-4-(2,4-diamino-vyrimidin-5-ylmethyl)-6-ethoxy-biphenyl-2-yl ester]	1 (≈ 2.12 µM)	1 (≈ 2.12 µM)	6.2	82						
CCOc1cc(Cc2cnc(N)nc2N)cc(OCC)c1-c1ccco1 [Example 02-o, 5-(3,5-Diethoxy-4-furan-2-yl-benzyl)-pyrimidine-2,4-diamine]	4 (≈ 11.3 µM)	4 (≈ 11.3 µM)	100	2200						
CCCS(=O)(=O)Oc1cc(Cc2cnc(N)nc2N)cc(OCC)c1-c1ccc2c(c1)OCO2 [Example 17-d, Propane-1-sulphonic acid 2-benzo[1.3]dioxol-5-yl-5-(2,4-diamino-pyrimidin-5-ylmethyl)-3-ethoxy-phenyl ester]	1 (≈ 2.06 µM)	4 (≈ 8.22 µM)	14	150						
